Source: patent publication US20180344725A1, “QUINOLONE CHALCONE COMPOUNDS AND USES THEREOF” (priority 2015, published 2018)

Tests used:
MDA-MB-468 = assay: Immunofluorescent staining: centrosomes and chromosome segregation; type: cell-based, human; settings: 3 μM
Method: (§1) Cells on coverslips placed on the bottom of 35 mm tissue culture plates or 6-well clustered dishes were treated for 12-24 hours with the CTR compounds to be tested. Subsequently, the cells were fixed with 100% methanol for 15 minutes and washed with 1×PBS three times. Cells were then “blocked” with 3% BSA or 1% (v/v) FBS plus 1×PBST (1×PBS buffer containing 0.1% (v/v) Triton X-100 or 0.2% Tween 20), and incubated overnight at 4° C. with primary antibodies, with gentle agitation. Unbound primary antibodies were washed off with PBST, and a secondary antibody was added for 1 hour in the dark. Secondary antibodies were conjugated to Alexa 488 or 568. DNA was counterstained with DRAQ5 or DAPI. Subsequently, coverslips were washed three times with 1×PBST for 10 minutes each, followed by mounting them onto slides with 90% glycerol in 1×PBS. Each slide was visualized with a Carl Zeiss 510 Meta laser scanning microscope or an Axioscope. Image analysis was done with an LSM image examiner equipped with the microscopes (Carl Zeiss, Toronto, ON, Canada).
(§2) The cancer-specific increase of mitotic cells in response to CTR-17 was correlated with the accumulation of cells with monopolar centrosomes and abnormal chromosome alignment/segregation (FIG. 11, Table 5). Cells were either sham-treated or treated with 3.0 μM CTR-17 for 12 hours or 24 hours, followed by analyses of cell cycle progression, centrosome abnormalities, and chromosome alignment/segregation. […] The mitotic index was determined by fluorescence microscopic analysis of at least 200 cells for each cell type, and data was expressed as percentage mean±S.E.M. of at least two independent experiments.

HEK293T = assay: as above; type: cell-based; settings: 3 μM
Method: as §1, §2

HeLa cells [1] = assay: EdU incorporation (DNA replication); type: cell-based; settings: 3.0 μM for 24 hours; sham control 25.4%
Method: (§3) CTR-17 caused neither impediment of DNA replication nor DNA damage. […] The detection of EdU incorporated into DNA was carried out by fluorescence microscopy. […] Etoposide (50.0 μM) was used as a positive control.

HeLa cells [2] = assay: γ-H2AX immunostaining (DNA damage); type: cell-based; settings: 3.0 μM
Method: as §3

NCI-60 cancer cell lines = assay: NCI-60 cancer panel SRB screening; type: cell-based; settings: 10 μM, 48 hours
Method: Ten μM of CTR-20 was used to examine the drug's efficacy against the NCI-60 cancer cell lines including: six leukemia cell lines, nine non-small cell lung cancer cell lines, seven colorectal cancer cell lines, six CNS cancer cell lines, nine melanoma cell lines, seven ovarian cancer cell lines, seven renal cancer cell lines, two prostate cancer cell lines and six breast cancer cell lines. Screening method was carried out by a sulforhodamine B (SRB) colorimetric assay.

HeLa S3 cells = assay: Trypan blue exclusion assay; type: cell-based; settings: 1 μM; 72 hours post-treatment
Method: Cell survival/death was determined by trypan blue exclusion assays.

MCF-7 = assay: Immunofluorescent staining: centrosomes and chromosome segregation; type: cell-based, human; settings: 1 μM, 24 hours
Method: as §1
Asynchronously growing cells were treated with 1 μM CTR-20 for 24 hours, followed by examining cells arrested in mitosis. The percentage of mitotic cells was calculated based on the examination of at least 250-400 cells. […]

COc1ccccc1C(=O)/C=C/c1cc2ccccc2[nH]c1=O [CTR-17, (E)-3-(3-(2-Methoxyphenyl)-3-oxoprop-1-enyl)quinolin-2(1H)-one]
ACS (abnormal chromosome segregation) (MDA-MB-468; 12 h post-treatment): 44.7 ± 8.9% of total mitotic cells | Monopolar centrosome (MDA-MB-468; 12 h post-treatment): 55.3 ± 8.9% of total mitotic cells | ACS (abnormal chromosome segregation) (MDA-MB-468; 24 h post-treatment): 24.0 ± 5.9% of total mitotic cells | Monopolar centrosome (MDA-MB-468; 24 h post-treatment): 76.0 ± 5.9% of total mitotic cells | ACS (abnormal chromosome segregation) (HEK293T; 12 h post-treatment): 48.2 ± 10.1% of total mitotic cells | Monopolar centrosome (HEK293T; 12 h post-treatment): 50.5 ± 10.1% of total mitotic cells | ACS (abnormal chromosome segregation) (HEK293T; 24 h post-treatment): 0.1 ± 0.0% of total mitotic cells | Monopolar centrosome (HEK293T; 24 h post-treatment): 93.2 ± 3.4% of total mitotic cells | EdU positive cells (HeLa cells [1]): 22.0% | DNA damage (γ-H2AX) (HeLa cells [2]): does not cause any notable DNA damage

COc1ccc2[nH]c(=O)c(/C=C/C(=O)c3ccccc3OC)cc2c1 [CTR-20, (E)-6-Methoxy-3-(3-(2-methoxyphenyl)-3-oxoprop-1-enyl) quinolin-2(1H)-one]
cell survival (range over cell lines) (NCI-60 cancer cell lines; nine melanomas): −10.05 to +50.45% | cell survival (range over cell lines) (NCI-60 cancer cell lines; nine non-small cell lung cancer cell lines): −11.97 to 38.93% | cell survival (range over cell lines) (NCI-60 cancer cell lines; seven colorectal cancer cell lines): +4.37 to +23.11% | cell survival (range over cell lines) (NCI-60 cancer cell lines; seven ovarian cancer cell lines): +1.18 to +50.80% | cell survival (range over cell lines) (NCI-60 cancer cell lines; seven renal cancer cell lines): −7.90 to +42.01% | cell survival (range over cell lines) (NCI-60 cancer cell lines; six breast cancer cell lines): −2.02 to +18.91% | cell survival (range over cell lines) (NCI-60 cancer cell lines; six leukemia cell lines): −2.46 to +10.88% | cell survival (range over cell lines) (NCI-60 cancer cell lines; two prostate cancer cell lines): +10.76 to +22.06% | cell death (HeLa S3 cells): ~70% | ACA/S (%) (abnormal chromosome alignment and segregation) (MCF-7): 29.01 ± 2.50% | Monopolar (%) (MCF-7): 62.41 ± 2.99%
